Assay results published in paper PMC5231396 (ACS chemical neuroscience, 2016).
pEC50: −log10 of the molar value.

Target: T1, M1 muscarinic acetylcholine receptor (Mus musculus, UniProt P12657)
T1 sequence (P12657 1-460): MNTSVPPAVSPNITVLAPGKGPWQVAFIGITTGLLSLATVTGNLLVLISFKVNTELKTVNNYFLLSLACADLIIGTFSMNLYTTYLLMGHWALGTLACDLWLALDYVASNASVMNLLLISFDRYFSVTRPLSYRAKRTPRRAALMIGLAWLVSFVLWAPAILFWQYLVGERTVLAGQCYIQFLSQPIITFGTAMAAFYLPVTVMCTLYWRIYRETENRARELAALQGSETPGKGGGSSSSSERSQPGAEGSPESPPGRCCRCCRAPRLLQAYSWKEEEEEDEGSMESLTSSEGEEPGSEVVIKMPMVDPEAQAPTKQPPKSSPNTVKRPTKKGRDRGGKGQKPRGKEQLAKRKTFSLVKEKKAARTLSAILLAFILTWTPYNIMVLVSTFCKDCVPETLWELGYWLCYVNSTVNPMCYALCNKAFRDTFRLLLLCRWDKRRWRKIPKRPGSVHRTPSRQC
Assay: previously published M1 PAM compared side-by-side with VU6004256
Type: cell-based

`Cn1cc(-c2ccc(CN3Cc4ncccc4C3=O)c(F)c2)cn1` [compound 1, VU0453595] gave a pEC50 of 5.49.
